# Measured values taken from patent US20050282863A1, “Novel-N substituted dihydrobenzothiepino, dihydrobenzoxepino and tetrahydro benzocyclohepta indoles as selective estrogen receptor modulators” (Council of Scientific & Industrial Research, priority 2004, published 2005).
# Read-outs that look alike come from different tables or passages of the source.
# Assays:
# [1] = tested on: MCF-7 cells; experiment: Antiproliferative/cytotoxic activity in cultured MCF-7 cells (SRB assay); type: cell-based; settings: Homo sapiens, MCF7, 48 h, MCF-7, 48 h
# Protocol: The procedure is based on the following methods: New calorimetric assay for anticancer drug screening, Skehan et al., J Natn Cancer Inst, 82,1107, 1990 and Feasibility of a high-flux anticancer drug screen using a diverse panel of cultured human tumor cell lines, J Natn Cancer Inst, 83,757, 1991.
# A fully confluent flask of MCF-7 cells in trypsinized and 10^4 cells/well are plated in a 96 welled flat bottomed plate in 200 μl Minimum Essential Medium (MEM), pH 7.4 and allowed to attach for 24 h at 37° C. in a humidified CO2 incubator. Subsequently, the compound of invention dissolved in DMSO or ethanol is added at a specified concentration and further incubated for 48 h as before. The cells are then fixed in 50 μl cold 50% TCA and incubated for 1 h at 4° C. The supernatant is discarded and the plate is washed five times with deionized water and air-dried. 100 μl of 0.4% (w/v) Sulforhodamine B (SRB) in 1% acetic acid is added to each well and incubated at room temperature for 30 minutes. Unbound SRB is removed by five washes with chilled 1% acetic acid and the plate is air-dried. 200 μl of unbuffered 10 mM Tris base is added to solublize the bound stain for 5 minutes at room temperature and O.D. is read at 560 nm in a plate reader. The graph is plotted between O.D. and concentration and LC50 is calculated with respect to tamoxifen, which is used as a positive control.
# [2] = tested on: immature ovariectomized rats; experiment: Estrogen agonistic activity: increase in uterine weight in immature ovariectomized rats; type: in vivo, rat; settings: daily dose 0.01 mg/kg, 3 days; percent of ovariectomized + vehicle group
# Protocol: Twenty-one-day-old immature female rats are bilaterally ovariectomized under light ether anaesthesia and, after post-operative rest for 7 days, are randomized into different treatment groups. Each rat receives the compound of the invention once daily for 3 consecutive days on days 28-30 of age. A separate group of animals receiving only the vehicle for similar duration serves as control. A autopsy 24 h after the last treatment on day 31 of age, vaginal smear of each rat is taken and uterus is carefully exised, gently blotted, weighed and fixed for histology and histomorphometry using image analysis. Premature opening of vagina, cornification of vaginal epitelium, increase in uterine fresh weight, total uterine and endometrial area and uterine luminal epithelial cell height are taken as parameters for evaluation of estrogen agonistic activity in comparision to rats of vehicle control group.
# [3] = target: T1, estrogen receptors (Rattus norvegicus, UniProt P06211); experiment: Relative binding affinity (RBA) to estrogen receptors, 3H-estradiol competition assay; parameters: key: % of 17-beta-estradiol binding affinity (estradiol = 100); settings: relative to 17-beta-estradiol (=100, percentage value); rat uterine cytosol, 3H-E2, 18 hrs at 4° C.
# T1 construct: Aliquot of uterine cytosol (200 μl; 2 uteri per ml) prepared in TEA buffer; from tissue; host or cells: uterine cytosol of immature estradiol-primed 20-21 day old rats
# T1 sequence (P06211 1-600): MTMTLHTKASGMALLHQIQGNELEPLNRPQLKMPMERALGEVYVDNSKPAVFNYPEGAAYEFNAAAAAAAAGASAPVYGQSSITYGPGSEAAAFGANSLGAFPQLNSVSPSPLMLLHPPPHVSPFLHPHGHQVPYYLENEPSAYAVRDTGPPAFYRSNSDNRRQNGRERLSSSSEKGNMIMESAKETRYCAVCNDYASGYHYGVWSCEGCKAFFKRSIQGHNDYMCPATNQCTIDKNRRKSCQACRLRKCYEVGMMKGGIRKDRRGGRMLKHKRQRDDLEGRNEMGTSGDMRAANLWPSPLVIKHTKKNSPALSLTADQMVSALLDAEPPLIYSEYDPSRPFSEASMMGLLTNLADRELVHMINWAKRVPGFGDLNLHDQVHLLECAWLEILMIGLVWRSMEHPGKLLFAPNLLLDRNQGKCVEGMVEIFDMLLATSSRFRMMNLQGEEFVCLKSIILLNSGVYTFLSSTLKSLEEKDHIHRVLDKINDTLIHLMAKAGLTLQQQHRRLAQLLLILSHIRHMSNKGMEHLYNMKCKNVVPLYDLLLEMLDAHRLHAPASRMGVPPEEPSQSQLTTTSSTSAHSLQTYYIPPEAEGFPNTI
# Protocol: The relative binding affinity (RBA) of the compounds for estrogen receptor is determined by competition assay, employing ^3H-estradiol (^3H-E2) as the radioligand. The test ligands and ^3H-E2 are incubated at 4° C. with cystol estrogen receptors obtained from uteri of immature estradoil-primed (1 μg/rat 24 h before autopsy) 20-21 days old rats. Aliquot of uterine cytosol (200 μl; 2 uteri per ml) prepared in TEA buffer (10 mM Tris, 1.5 mM EDTA, 0.02% sodium azide, pH 7.4) are incubated in duplicate with a fixed concentration of ^3H-E2 in the absence or presence of various concentrations of the competitor substance dissolved in 30 μl of the TEA buffer containing DMF as co-solvent (final concentration of DMF in the incubation mixture never exceeded 5%) for 18 hrs at 4° C. At the end of this period, dextran coated charcoal (5% Norit 0.5% dextran) suspension in 100 μl of TEA buffer is added to each tube, briefly vortexed and allowed to stand for 15 minutes at 4° C. The mixture is centrifuged at 800 g for 10 minutes and the supernatants counted for radioactivity in 10 ml of a dioxane-based scintillation fluid. RBA of the text compound is computed from a graph plotted between percent bound radioactivity verses log concentration of the test substance. […] This when multiplied with 100 gives the percentage value designated as RBA.
# [4] = tested on: adult female rats; experiment: Post-coital antifertility efficacy in adult female rats; type: in vivo, rat; settings: daily dose 10 mg/kg, oral, days 1-7 post-coitum
# Excerpt: Adult female rats are caged overnight with coeval males of proven fertility and their vaginal smears are checked on the following morning. The day of presence of spermatozoa in the vaginal smear is taken as day 1 of pregnancy. Mated rats are isolated and randomized into various treatment groups and treated orally with the compound of invention or the vehicle on days 1-7/1-5 post-coitum. Animals of all the groups are autopsied on day 10 post-coitum and number and status of corpora lutea and implantation sites in each rat are recorded. The compounds of the present invention are considered active if there is complete absence of implantations in the uterus of all rats, in comparison to presence of normal implantations in the uterus of rats of vehicle control group.
SMILES,"CC50 ([1]; read-out: LC50, Test-4) [µM]",RBA [3],other results
"CC/C(=C(\c1ccccc1)c1ccc(OCCN(C)C)cc1)c1ccccc1 [Tamoxifen, reference compound]",9.8 to 10,–,"CC50 ([1]; read-out: LC50, Test-1): 18.5 µM; CC50 ([1]; read-out: LC50, Test-2): 5.5 µM; CC50 ([1]; read-out: LC50, Test-3): 12.4 µM"
"c1ccc2c(c1)SCCc1c-2n(CCCCN2CCCCC2)c2ccccc12 [Example number 9, 12-[4-(Piperidine-1-yl)butyl]-6,7-dihydro-12H-benzothiepino [5,4-b]indole]",–,–,"CC50 ([1]; read-out: LC50, Test-2): 37.4 µM"
"C#C[C@]1(O)CC[C@H]2[C@@H]3CCc4cc(O)ccc4[C@H]3CC[C@@]21C [17α-Ethynylestradiol, reference compound]",–,–,Percent increase in uterine weight [2]: 419%
"COc1ccc2c(c1)SCCc1c-2n(CCCCCN2CCCCC2)c2ccc(OC)cc12 [Example number 32, 3,9-Dimethoxy-12-[5-(piperidine-1-yl)pentyl]-6,7-dihydro-12H-benzothiepino [5,4-b]indole]",28,<0.001,–
"c1ccc2c(c1)SCCc1c-2n(Cc2ccc(OCCCCCN3CCCCC3)cc2)c2ccccc12 [Example number 60, 12-[4-(5-Piperidin-1-yl-pentyloxy)benzyl]-6,7-dihydro-12H-benzothiepino [5,4-b]indole]",18.4,–,% Efficacy [4]: Inactive
"COc1ccc2c(c1)SCCc1c-2n(CCCCCN2CCCC2)c2ccccc12 [Example number 23, 3-Methoxy-12-[5-(pyrrolidine-1-yl)pentyl]-6,7-dihydro-12H-benzothiepino [5,4-b]indole]",60,<0.001,–
"Oc1ccc2c(c1)c1c(n2CCCCCN2CCCCC2)-c2ccccc2SCC1 [Example number 29, 9-Hydroxy-12-[5-(piperidine-1-yl)pentyl]-6,7-dihydro-12H-benzothiepino [5,4-b]indole]",–,<0.001,% Efficacy [4]: Inactive
"COc1ccc2c(c1)SCCc1c-2n(CCCCCN2CCCC2)c2ccc(OC)cc12 [Example number 33, 3,9-Dimethoxy-12-[5-(pyrrolidine-1-yl)pentyl]-6,7-dihydro-12H-benzothiepino [5,4-b]indole]",18.2,<0.001,–
"Oc1ccc2c(c1)SCCc1c-2n(CCCCCN2CCCC2)c2ccccc12 [Example number 25, 3-Hydroxy-12-[5-(pyrrolidine-1-yl)pentyl]-6,7-dihydro-12H-benzothiepino [5,4-b]indole]",–,0.83,"CC50 ([1]; read-out: LC50, Test-2): 15 µM"
"CCCCN(C)CCCCCCn1c2c(c3ccccc31)CCSc1ccccc1-2 [Example number 20, 12-[6-(N-butylmethylamino)hexyl]-6,7-dihydro-12H-benzothiepino [5,4-b]indole]",–,0.10,–
"c1ccc2c(c1)SCCc1c-2n(CCCCCCN2CCCC2)c2ccccc12 [Example number 19, 12-[6-(Pyrrolidine-1-yl)hexyl]-6,7-dihydro-12H-benzothiepino [5,4-b]indole]",–,0.053,–
"CCCCN(C)CCCCCn1c2c(c3cc(OC)ccc31)CCSc1cc(OC)ccc1-2 [Example number 34, 3,9-Dimethoxy-12-[5-(N-butylmethylamino)pentyl]-6,7-dihydro-12H-benzothiepino [5,4-b]indole]",–,0.032,–
"COc1ccc2c(c1)SCCc1c-2n(CCCCCN2CCCCC2)c2ccccc12 [Example number 22, 3-Methoxy-12-[5-(piperidine-1-yl)pentyl]-6,7-dihydro-12H-benzothiepino [5,4-b]indole]",19.5,<0.001,–
"c1ccc2c(c1)SCCc1c-2n(Cc2ccc(OCCCCCN3CCCCC3)cc2)c2ccccc12 [Example number 43, 12-[4-(5-Piperidin-1-yl-pentyloxy)benzyl]-6,7-dihydro-12H-benzothiepino [5,4-b]indole]",–,–,% Efficacy [4]: Inactive
